US20110319362A1, “STAT3 LIGANDS AND THERAPEUTIC USES THEREOF” (priority 2008, published 2011)
Read-outs that look alike come from different tables or passages of the source.

Experiments:
[1] = tested on: MDA-MB-468 cancer cell line; experiment: Cell growth assay (WST-8); type: cell-based; details: Homo sapiens, MDA-MB-468, 96 h; WST-8, 4 days; read-out: Inhibition of cell growth IC50, MDA-MB-468 cancer cell line
Experimental: (§1) The effect of STAT3 compounds on cell growth was evaluated by a WST-8 [2-(2-methoxy-4-nitrophenyl)-3-(4-nitrophenyl)-5-(2,4-disulfophenyl)-2H-tetrazolium, monosodium salt assay (Dojindo Molecular Technologies, Inc). Cells (3000-4000 cells in each well) were cultured in 96-well tissue culture plates in medium (200 μL) containing various concentrations of STAT3 compounds for 4 days. At the end of incubation, WST-8 dye (20 μL) was added to each well and incubated for an additional 1-3 h, and then the absorbance was measured in a microplate reader (Molecular Devices) at 450 nm. Cell growth inhibition was evaluated as the ratio of the absorbance of the sample to that of the control.

[2] = tested on: MDA-MB-231 cancer cell line; experiment: Cell growth assay (WST-8); type: cell-based; details: Homo sapiens, MDA-MB-231, 96 h; WST-8, 4 days; read-out: Inhibition of cell growth IC50, MDA-MB-231 cancer cell line
Experimental: as §1

STAT3 protein = target: T1, STAT3 protein (Homo sapiens, UniProt P40763); experiment: In vitro competitive STAT3 binding assay (fluorescence polarization)
T1 construct: human STAT3 protein (residues 122-722) fused to His-tag; His-tag
T1 sequence (P40763 122-722): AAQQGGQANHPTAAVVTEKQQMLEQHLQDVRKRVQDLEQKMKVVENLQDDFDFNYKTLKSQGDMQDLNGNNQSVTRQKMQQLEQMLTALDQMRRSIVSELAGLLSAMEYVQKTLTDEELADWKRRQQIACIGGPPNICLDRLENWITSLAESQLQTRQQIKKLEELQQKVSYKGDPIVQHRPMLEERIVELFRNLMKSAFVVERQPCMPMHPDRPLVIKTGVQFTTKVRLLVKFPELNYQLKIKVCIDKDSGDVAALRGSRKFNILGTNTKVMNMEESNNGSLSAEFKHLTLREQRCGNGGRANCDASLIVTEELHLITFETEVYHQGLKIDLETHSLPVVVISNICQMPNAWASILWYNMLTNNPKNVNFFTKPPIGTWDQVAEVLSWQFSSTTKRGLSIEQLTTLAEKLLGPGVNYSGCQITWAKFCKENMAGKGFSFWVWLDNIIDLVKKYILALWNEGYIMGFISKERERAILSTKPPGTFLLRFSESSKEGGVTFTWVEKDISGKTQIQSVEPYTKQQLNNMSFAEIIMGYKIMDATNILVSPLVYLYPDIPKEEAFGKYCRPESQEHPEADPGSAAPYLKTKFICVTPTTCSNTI
Source text: To quantitatively determine the binding affinities of STAT3 inhibitors to STAT3 protein, a sensitive and quantitative in vitro binding assay was developed based upon fluorescence polarization (FP) method. For this FP assay, 5-carboxyfluorescein (5-Fam) was coupled to a phosphopeptide (phospho-Tyr-Leu-Pro-Gln-Thr-Val-amide) with two beta-alanine and one glycine residues as the spacer between 5-Fam and the phosphopeptide to obtain 5-Fam-beta-Ala-beta-Ala-Gly-phospho-Tyr-Leu-Pro-Gln-Thr-Val-amide as the fluorescently tagged tracer, which was named as STT2 peptide. […] The recombinant human STAT3 protein (residues 122-722) fused to His-tag was stable and soluble.
Competitive binding experiments were carried out using 150 nM of STAT3 protein and 5 nM of STT2 peptide with different concentrations of a tested STAT3 inhibitor. For each experiment, two controls were included. One control contained STAT3 protein and STT2 peptide, and the second control contained STT2 peptide only. The polarization values were measured after 2-3 hours of incubation using an ULTRA READER (Tecan U.S. Inc., Research Triangle Park, N.C.). IC50 values, the inhibitor concentration at which 50% of the fluorescently tagged STT2 peptide is displaced by STAT3 inhibitors, was determined from a plot using nonlinear least-squares analysis using GRAPHPAD PRISM software (GraphPad Software, Inc., San Diego, Calif.). […]

[3] = FP competitive binding, fluorescently tagged STT2 peptide tracer, read-out: Binding affinities to STAT3 IC50

| SMILES | IC50 [1] [µM] | IC50 [2] [µM] | IC50 (STAT3 protein; [3]) [µM] | IC50 (STAT3 protein) [µM] |
| --- | --- | --- | --- | --- |
| NCCOCCOCCOCCOCCC(=O)N[C@@H](Cc1ccc(OP(=O)(O)O)cc1)C(=O)N[C@H]1CCCCC2CC[C@@H](C(=O)N[C@@H](CCC(N)=O)C(=O)NCc3ccccc3)N2C1=O (stereo partly drawn) | > 100 | > 100 | < 5 | – |
| CCCCCCCCNC(=O)[C@H](CCC(N)=O)NC(=O)[C@@H]1CCC2CCCC[C@H](NC(=O)[C@H](Cc3ccc(OP(=O)(O)O)cc3)NC)C(=O)N21 (stereo partly drawn) | > 100 | > 100 | < 5 | – |
| CCCCCCCCCCCCNC(=O)[C@H](CCC(N)=O)NC(=O)[C@@H]1CCC2CCCC[C@H](NC(=O)[C@H](Cc3ccc(OP(=O)(O)O)cc3)NC)C(=O)N21 (stereo partly drawn) | < 20 | < 30 | < 5 | – |
| CCCCCCCCCCCCCCCCCCCCNC(=O)[C@H](CCC(N)=O)NC(=O)[C@@H]1CCC2CCCC[C@H](NC(=O)[C@H](Cc3ccc(OP(=O)(O)O)cc3)NC)C(=O)N21 (stereo partly drawn) | < 30 | < 30 | < 5 | – |
| CCCCCCCCCCCCCCCCNC(=O)[C@H](CCC(N)=O)NC(=O)[C@@H]1CC[C@@H]2CCCC[C@H](NC(=O)[C@H](Cc3ccc(OP(=O)(O)O)cc3)NC(=O)CCN3CCN(C)CC3)C(=O)N21 | > 20 | > 20 | – | < 5 |
| CCCCCCCCCCCCCCCCN1CCN(CCC(=O)N[C@@H](Cc2ccc(OP(=O)(O)O)cc2)C(=O)N[C@H]2CCCCC3CC[C@@H](C(=O)NCCCC(O)CO)N3C2=O)CC1 (stereo partly drawn) | < 20 | < 20 | < 10 | – |
| CCCCCCCCCCCCCCCCN1CCN(CCC(=O)N[C@@H](Cc2ccc(OP(=O)(O)O)cc2)C(=O)N[C@H]2CCCCC3CC[C@@H](C(=O)NCCc4cnc[nH]4)N3C2=O)CC1 (stereo partly drawn) | < 10 | < 10 | < 10 | – |
| CCCCCCCCCCCCCCCCN1CCN(CCC(=O)N[C@@H](Cc2ccc(OP(=O)(O)O)cc2)C(=O)N[C@H]2CCCCC3CC[C@@H](C(=O)N[C@@H](CCC(N)=O)C(=O)NCc4ccccc4)N3C2=O)CC1 (stereo partly drawn) | < 10 | < 10 | < 1 | – |
| CCCCCCCCCCCCCCCCN1CCN(CCC(=O)N[C@@H](Cc2ccc(OP(=O)(O)O)cc2)C(=O)N[C@H]2CCCCC3CC[C@@H](C(=O)N[C@H](CO)Cc4c[nH]cn4)N3C2=O)CC1 (stereo partly drawn) | < 20 | < 20 | < 5 | – |
| CCCCCCCCCCCCCCCCN1CCN(CCC(=O)N[C@@H](Cc2ccc(OP(=O)(O)O)cc2)C(=O)N[C@H]2CCCCC3CC[C@@H](C(=O)N[C@@H](Cc4c[nH]cn4)C(=O)NCc4ccccc4)N3C2=O)CC1 (stereo partly drawn) | < 30 | < 30 | < 5 | – |
| CCCCCCCCCCCCCCCCN1CCN(CCC(=O)N[C@@H](Cc2ccc(OP(=O)(O)O)cc2)C(=O)N[C@H]2CCCCC3CC[C@@H](C(=O)NCCc4nnc[nH]4)N3C2=O)CC1 (stereo partly drawn) | < 20 | < 20 | < 5 | – |
| CCCCCCCCCCCCCCCCN1CCN(CCC(=O)N[C@@H](Cc2ccc(OP(=O)(O)O)cc2)C(=O)N[C@H]2CCCCC3CC[C@@H](C(=O)NCCCCNC)N3C2=O)CC1 (stereo partly drawn) | < 50 | < 50 | < 10 | – |
| CCCCCCCCCCCCCCCCN1CCN(CCC(=O)N[C@@H](Cc2ccc(OP(=O)(O)O)cc2)C(=O)N[C@H]2CCCCC3CC[C@@H](C(=O)NCCCCN(C)C)N3C2=O)CC1 (stereo partly drawn) | < 50 | < 100 | < 20 | – |
| CCCCCCCCCCCCCCCCN1CCN(CCC(=O)N[C@@H](Cc2ccc(OP(=O)(O)O)cc2)C(=O)N[C@H]2CCCCC3CC[C@@H](C(=O)NCCc4cn[nH]c4)N3C2=O)CC1 (stereo partly drawn) | < 20 | < 20 | < 5 | – |
| CCCCCCCCCCCCCCCCN1CCN(CCC(=O)N[C@@H](Cc2ccc(OP(=O)(O)O)cc2)C(=O)N[C@H]2CCCCC3CC[C@@H](C(=O)NCCN4CCNC4=O)N3C2=O)CC1 (stereo partly drawn) | < 20 | < 30 | < 5 | – |
| CCCCCCCCCCCCCCCCN1CCN(CCC(=O)N[C@@H](Cc2ccc(CP(=O)(O)O)cc2)C(=O)N[C@H]2CCCCC3CC[C@@H](C(=O)N[C@@H](CCC(N)=O)C(=O)NCc4ccccc4)N3C2=O)CC1 (stereo partly drawn) | > 100 | > 100 | – | > 100 |
| CCCCCCCCCCCCCCCC(=O)N[C@H](Cc1ccc(OCP(=O)(O)O)cc1)C(=O)N[C@H]1CCCCC2CC[C@@H](C(=O)N[C@@H](CCC(N)=O)C(=O)NCc3ccccc3)N2C1=O (stereo partly drawn) | < 50 | < 100 | – | < 5 |
